From patent US4732969A, “Des-19-leucine, 20-glutamine-calcitonin” (Armour Pharmaceutical Corporation, priority 1986, dated 1988)
Where a SMILES comes first, the peptide text is derived from it. Bridges are numbered along the chain shown (N, C = ends).

Columns and labels:
[1] = test system: serum calcium concentration
Description: Biological Assay Of Calcitonin Analogs In Vivo
Rats were divided into four groups of seven animals, and each group was assigned at random to a dose of standard or test solution. Low and high doses were chosen from the linear portion of the dose-response curve. For the salmon calcitonin standard, the values were 0.7 and 2.1 ng. peptide/100 g. body weight (BW). This dose approximates 3 and 9 MU/100 g. BW. Peptides were given by subcutaneous injection (0.2 ml/100 g. BW) and blood was withdrawn 1 hour later for serum calcium determination. Sera are processed and analyzed within two hours of collection. Results were analyzed within two hours of collection.

[2] = literature value, Experientia 32(9), 1104-1106 (1976); cited from earlier work

Row | Molecule | hypocalcemic potency [2] | further results
1 | CC(C)C[C@H](NC(=O)[C@H](CCCCN)NC(=O)CNC(=O)[C@H](CC(C)C)NC(=O)[C@@H](NC(=O)[C@@H]1CSSC[C@H](N)C(=O)N[C@@H](CO)C(=O)N[C@@H](CC(N)=O)C(=O)N[C@@H](CC(C)C)C(=O)N[C@@H](CO)C(=O)N[C@@H]([C@@H](C)O)C(=O)N1)C(C)C)C(=O)N[C@@H](CO)C(=O)N[C@@H](CCC(N)=O)C(=O)N[C@@H](CCC(=O)O)C(=O)N[C@@H](CC(C)C)C(=O)N[C@@H](Cc1c[nH]cn1)C(=O)N[C@@H](CCCCN)C(=O)N[C@H](C(=O)N[C@@H](Cc1ccc(O)cc1)C(=O)N1CCC[C@H]1C(=O)N[C@@H](CCCNC(=N)N)C(=O)N[C@H](C(=O)N[C@@H](CC(N)=O)C(=O)N[C@H](C(=O)NCC(=O)N[C@@H](CO)C(=O)NCC(=O)N[C@H](C(=O)N1CCC[C@H]1C(N)=O)[C@@H](C)O)[C@@H](C)O)[C@@H](C)O)[C@@H](C)O [des-Leu^19 -Gln^20 -SCT, des-19-leucine, 20-glutamine-salmon calcitonin] (H-CSNLSTCVLGKLSQELHKTYPRTNTGSGTP-NH2; disulfide 1-7) | – | biological potency ([1]; rat, in vivo, sc): 6900 IU/mg
2 | eel calcitonin [synthetic eel calcitonin] | around 4300 IU/mg | –
3 | CC(C)C[C@H](NC(=O)[C@H](CCCCN)NC(=O)CNC(=O)[C@H](CC(C)C)NC(=O)[C@@H](NC(=O)[C@@H]1CSSC[C@H](N)C(=O)N[C@@H](CO)C(=O)N[C@@H](CC(N)=O)C(=O)N[C@@H](CC(C)C)C(=O)N[C@@H](CO)C(=O)N[C@@H]([C@@H](C)O)C(=O)N1)C(C)C)C(=O)N[C@@H](CO)C(=O)N[C@@H](CCC(N)=O)C(=O)N[C@@H](CCC(=O)O)C(=O)N[C@@H](CC(C)C)C(=O)N[C@@H](Cc1c[nH]cn1)C(=O)N[C@@H](CCCCN)C(=O)N[C@@H](CC(C)C)C(=O)N[C@@H](CCC(N)=O)C(=O)N[C@H](C(=O)N[C@@H](Cc1ccc(O)cc1)C(=O)N1CCC[C@H]1C(=O)N[C@@H](CCCNC(=N)N)C(=O)N[C@H](C(=O)N[C@@H](CC(N)=O)C(=O)N[C@H](C(=O)NCC(=O)N[C@@H](CO)C(=O)NCC(=O)N[C@H](C(=O)N1CCC[C@H]1C(N)=O)[C@@H](C)O)[C@@H](C)O)[C@@H](C)O)[C@@H](C)O [standard salmon calcitonin, salmon calcitonin] | – | potency content of the standard ([1]; standard used in the assay, independently determined): greater than 4,000 IU/mg
4 | (1,7-α-L-aminosuberic acid)eel calcitonin | about 3400 IU/mg | –
